Data: US20240101599A1, “PEPTIDE, CELL GROWTH PROMOTER, PROTEIN PRODUCTION PROMOTER, CULTURE MEDIUM, CELL GROWTH METHOD USING PEPTIDE, AND PROTEIN PRODUCTION METHOD USING PEPTIDE” (Maruhachi Muramatsu, Inc., priority 2020, published 2024)
Where two headings read alike, the source gives them in different places. Peptide text beside a SMILES is read from it.

Columns and labels:
CHO-K1 = assay: Cell growth test of each peptide on coating agent for 3 days; assay type: cell-based; parameters: Viability, 1 / Viability, 2 / Viability, 3 / Viability, Average: unit not given here; details: 2.1 mM Gly-Glu-Lys, poly-L-lysine coating; for Cells cell count, Average / Viability, Average: average n=3, 2.2 mM Asp-Gly-Pro; for Cells cell count, 1 / Viability, 1: replicate 1, 2.2 mM Asp-Gly-Pro; for Cells cell count, 2 / Viability, 2: replicate 2, 2.2 mM Asp-Gly-Pro; for Cells cell count, 3 / Viability, 3: replicate 3, 2.2 mM Asp-Gly-Pro
Protocol: Peptides having the sequences of Gly-Glu-Lys (GEK) and Asp-Gly-Pro (DGP) were synthesized to prepare each peptide solution such that the concentration was a concentration at which the cell number increased the most within a range of 0 mM to 5 mM. In other words, Gly-Glu-Lys (GEK) was adjusted to 21 mM, and Asp-Gly-Pro (DGP) was adjusted to 22 mM, and an amount of 1/10 of the total culture medium volume was added to each well immediately before the cell culture test such that final concentrations were 2.1 mM and 2.2 mM, respectively.
Poly-L-lysine (Peptide Institute, Inc., Poly-L-Lysine Hydrochloride, code: 3075) was prepared to 0.1 mg/mL, and 200 μL was dispensed into each well of a 24-well plate, which was left to stand in an incubator at 37° C. for 2 hours. After removing the residual liquid with an aspirator, rinsing was performed with distilled water, irradiation was performed with a UV lamp in a clean bench without a lid, and drying was performed overnight to sterilize. A cell suspension prepared such that CHO-K1 (RIKEN BioResource Research Center, cell number: RCB2330) was at 4×10^4 cells/mL was seeded in a 24-well plate at 500 μL/well and cultured in an incubator at 37° C. and 5% CO2 for 24 hours. As a culture medium, an MEMα culture medium (Gibco) containing 10% FBS was used.
After removing the culture medium from each well and washing with the MEMα culture medium (500 μL), 450 μL of a new MEMα culture medium was dispensed into each well, and each peptide solution (50 μL) was added (total 500 μL/well) to perform culture for 3 days. The cells were recovered to count the cell number. A similar culture test was performed using a system containing neither peptide nor FBS as a comparative sample.
The culture medium in each well was recovered in a 1.5 mL tube to be rinsed with 200 μL of MEMα, and the rinsed liquid was also recovered in the same 1.5 mL tube. Thereafter, 100 μL of trypsin was added and incubated for 3 minutes. After rinsing with 300 μL of MEMα containing 10% FBS, the rinsed liquid was also recovered in the same 1.5 mL tube. After rinsing again with 200 μL of MEMa containing 10% FBS, the rinsed liquid was also recovered in the same 1.5 mL tube.
A centrifugation operation was performed on the cells recovered in the 1.5 mL tube. The centrifugation conditions were 1,000 rpm, 10 minutes, and 4° C.
The supernatant was removed, and 300 μL of Cold PBS (phosphate buffered saline) was added to perform a centrifugation operation under the same conditions. The present operation was repeated twice.
Suspension was carried out with 100 μL of Binding Buffer, and 2 μL of propidium iodide (PI) was added and stirred in the tube to cause a reaction for 15 minutes at room temperature and with light shielding. Thereafter, the viable cell count and the viability were measured with a flow cytometer.
The above preparation, culture, and measurement were performed with n=3. Table 13 and FIG. 13 show the viable cell count in each peptide solution, and Table 14 and FIG. 14 show the cell viability in each peptide solution.

[1] = tested on: serum-free floating CHO DP-12; details: GEK 2.05 mM, DGP 1.11 mM + medium supplemented with vitamins and the like; for Amount of protein produced: ELISA
Protocol: 5 mL of each of a DMEM/F12 basal medium, a medium supplemented with vitamins and the like (DMEM/F12 basal medium+a component supplemented with vitamins and the like), and each peptide solution was added to each well of a 24-well (Deep well) cassette of Micro-24 Bioreactor System (manufactured by Nihon Pall Corporation) to perform culture overnight under the conditions of 37° C., pH 7, and a stirring speed of 650 rpm. On the next day, pH calibration was performed, and thereafter 2 mL of the cell suspension prepared at 3.5×10^5 cells/mL was added to each well of the 24-well (Deep well) cassette, seeded such that the cell density of the floating cells was 1×10^5 cells/mL (7 mL/well), and cultured in the following evaluation medium under culture conditions of 37° C., pH 7, a stirring speed of 650 rpm, and dissolved oxygen of 30%.
• DMEM/F12 basal medium • Medium supplemented with vitamins and the like (basal medium+component supplemented with vitamins and the like) • GEK (2.05 mM)+medium supplemented with vitamins and the like • DGP (1.11 mM)+medium supplemented with vitamins and the like
As a culture medium, a DMEM/F12 basal medium in which 200 nM of methotrexate, 10 μg/mL of insulin, 5.5 μg/mL of transferrin, 6.7 ng/mL of sodium selenite, 10 μL/mL of Anti-Clumping Agent, and 10 μL/mL of 10% Pluronic F68 were blended in a DMEM/F12 culture medium (Gibco) was used.
As the floating cells used, serum-free floating CHO DP-12 obtained by acclimating CHO DP-12 (ATCC, Cat. No. CRL-12445) to serum-free flotation and subculturing using a 100 mL volume Erlenmeyer flask and with a shaking culture device (Custom Bio Shaker CO2-BR-43FL, TAITEC CORPORATION) under the culture conditions of 37° C., 5% CO2, and a stirring speed of 125 rpm was used.
After the third day of culture, 200 pμL of the culture medium was recovered in a 1.5 mL tube from each well of the 24-well (Deep well) cassette. 50 μL out of this was put in another 1.5 mL tube, and after adding 50 μL of trypan blue to sufficiently suspend, the viable cell count and the viability were measured using a cell counter (Countess II, manufactured by Life Technologies Corporation).
After the third day of culture, 150 μL out of 200 μL of the culture medium recovered from each well of the 24-well (Deep well) cassette was subjected to a centrifugation operation (5,000 rpm, for 5 minutes) in a 1.5 mL tube, and the supernatant was separately recovered to measure the amount of produced protein by ELISA.

NCCCC[C@H](NC(=O)[C@H](CCC(=O)O)NC(=O)CN)C(=O)O [GEK, Gly-Glu-Lys] (H-Gly-Glu-Lys-OH; N-terminus and C-terminus assumed)
Cells cell count, Average (CHO-K1): 19.35 ×10^4 | Viability, Average (CHO-K1): 94.5 | Cells cell count, 1 (CHO-K1): 17.94 ×10^4 | Viability, 1 (CHO-K1): 94.7 | Cells cell count, 2 (CHO-K1): 19.72 ×10^4 | Viability, 2 (CHO-K1): 95.1 | Cells cell count, 3 (CHO-K1): 20.39 ×10^4 | Viability, 3 (CHO-K1): 93.8 | cell number ([1]; Day 0): 0.10 ×10^6cells/ml | cell number ([1]; Day 3): 1.73 ×10^6cells/ml | Amount of protein produced ([1]; Day 3): 26.32 mg/L | cell number ([1]; Day 4): 2.40 ×10^6cells/ml | Amount of protein produced ([1]; Day 4): 54.96 mg/L | cell number ([1]; Day 5): 2.65 ×10^6cells/ml | Amount of protein produced ([1]; Day 5): 75.54 mg/L | cell number ([1]; Day 6): 2.64 ×10^6cells/ml | Amount of protein produced ([1]; Day 6): 98.46 mg/L | cell number ([1]; Day 7): 3.05 ×10^6cells/ml | Amount of protein produced ([1]; Day 7): 127.08 mg/L

Asp-Gly-Pro [DGP]
Cells cell count, Average (CHO-K1): 11.99 ×10^4 | Viability, Average (CHO-K1): 78.5 | Cells cell count, 1 (CHO-K1): 11.69 ×10^4 | Viability, 1 (CHO-K1): 77.9 | Cells cell count, 2 (CHO-K1): 10.47 ×10^4 | Viability, 2 (CHO-K1): 75.6 | Cells cell count, 3 (CHO-K1): 13.82 ×10^4 | Viability, 3 (CHO-K1): 82.0 | Viability ([1]; Day 0): 98.0% | cell number ([1]; Day 0): 0.10 ×10^6cells/ml | Viability ([1]; Day 3): 97.50% | cell number ([1]; Day 3): 1.15 ×10^6cells/ml | Amount of protein produced ([1]; Day 3): 19.86 mg/L | Viability ([1]; Day 4): 97.50% | cell number ([1]; Day 4): 2.52 ×10^6cells/ml | Amount of protein produced ([1]; Day 4): 43.99 mg/L | Viability ([1]; Day 5): 94.50% | cell number ([1]; Day 5): 2.58 ×10^6cells/ml | Amount of protein produced ([1]; Day 5): 63.65 mg/L | Viability ([1]; Day 6): 87.00% | cell number ([1]; Day 6): 3.50 ×10^6cells/ml | Amount of protein produced ([1]; Day 6): 82.54 mg/L | Viability ([1]; Day 7): 81.50% | cell number ([1]; Day 7): 3.01 ×10^6cells/ml | Amount of protein produced ([1]; Day 7): 104.75 mg/L
